In US12435059B2, “AMP-activated protein kinase inhibitors and methods of making and using the same” (The Regents of the University of Colorado, priority 2019, dated 2025):
Read-outs that look alike come from different tables or passages of the source.

Assays:
[1] = molecular target: 468 kinases (Homo sapiens, UniProt P10721, A829P); experiment: biochemical; assay type: binding; details: KIT(A829P); read-out: % Inhibition @ 100 nM
[2] = molecular target: 468 kinases (Homo sapiens, UniProt Q99759); experiment: biochemical; assay type: binding; details: MAP3K3; read-out: % Inhibition @ 100 nM
[3] = molecular target: 468 kinases (Homo sapiens, UniProt O75385); experiment: biochemical; assay type: binding; details: ULK1; read-out: % Inhibition @ 100 nM
[4] = molecular target: 468 kinases (Homo sapiens, UniProt P20794); experiment: biochemical; assay type: binding; details: MAK; read-out: % Inhibition @ 100 nM
[5] = molecular target: 468 kinases (Homo sapiens, UniProt P22455); experiment: biochemical; assay type: binding; details: FGFR4; read-out: % Inhibition @ 100 nM
[6] = molecular target: 468 kinases (Homo sapiens, UniProt P30291); experiment: biochemical; assay type: binding; details: WEE1; read-out: % Inhibition @ 100 nM
[7] = molecular target: 468 kinases (Homo sapiens, UniProt P07949, M918T); experiment: biochemical; assay type: binding; details: RET(M918T); read-out: % Inhibition @ 100 nM
[8] = molecular target: 468 kinases (Homo sapiens, UniProt P00533, L858R/T790M); experiment: biochemical; assay type: binding; details: EGFR(L858R,T790M); read-out: % Inhibition @ 100 nM
[9] = molecular target: 468 kinases (Homo sapiens, UniProt Q9P1W9); experiment: biochemical; assay type: binding; details: PIM2; read-out: % Inhibition @ 100 nM
[10] = molecular target: 468 kinases (Homo sapiens, UniProt Q5VT25); experiment: biochemical; assay type: binding; details: MRCKA; read-out: % Inhibition @ 100 nM
[11] = molecular target: 468 kinases (Homo sapiens, UniProt O00444); experiment: biochemical; assay type: binding; details: PLK4; read-out: % Inhibition @ 100 nM
[12] = molecular target: 468 kinases (Homo sapiens, UniProt Q9UK32); experiment: biochemical; assay type: binding; details: read-out: % Inhibition @ 100 nM
[13] = molecular target: 468 kinases (Homo sapiens, UniProt Q9UIK4); experiment: biochemical; assay type: binding; details: DAPK2; read-out: % Inhibition @ 100 nM
[14] = molecular target: 468 kinases (Homo sapiens, UniProt P09619); experiment: biochemical; assay type: binding; details: PDGFRB; read-out: % Inhibition @ 100 nM
[15] = molecular target: 468 kinases (Homo sapiens, UniProt Q6P3R8); experiment: biochemical; assay type: binding; details: NEK5; read-out: % Inhibition @ 100 nM
[16] = molecular target: 468 kinases (Homo sapiens, UniProt O75582); experiment: biochemical; assay type: binding; details: read-out: % Inhibition @ 100 nM
[17] = molecular target: 468 kinases (Homo sapiens, UniProt P36894); experiment: biochemical; assay type: binding; details: BMPR1A; read-out: % Inhibition @ 100 nM
[18] = molecular target: 468 kinases (Homo sapiens, UniProt P51955); experiment: biochemical; assay type: binding; details: NEK2; read-out: % Inhibition @ 100 nM
[19] = molecular target: 468 kinases (Homo sapiens, UniProt Q6ZN16); experiment: biochemical; assay type: binding; details: MAP3K15; read-out: % Inhibition @ 100 nM
[20] = molecular target: 468 kinases (Homo sapiens, UniProt Q02156); experiment: biochemical; assay type: binding; details: PRKCE; read-out: % Inhibition @ 100 nM
[21] = molecular target: 468 kinases (Homo sapiens, UniProt P36897); experiment: biochemical; assay type: binding; details: TGFBR1; read-out: % Inhibition @ 100 nM
[22] = molecular target: 468 kinases (Homo sapiens, UniProt O15146); experiment: biochemical; assay type: binding; details: MUSK; read-out: % Inhibition @ 100 nM
[23] = molecular target: 468 kinases (Homo sapiens, UniProt O75460); experiment: biochemical; assay type: binding; details: ERN1; read-out: % Inhibition @ 100 nM
[24] = molecular target: 468 kinases (Homo sapiens, UniProt P36888, D835Y); experiment: biochemical; assay type: binding; details: FLT3(D835Y); read-out: % Inhibition @ 100 nM
[25] = molecular target: 468 kinases (Homo sapiens, UniProt Q8N568); experiment: biochemical; assay type: binding; details: DCAMKL2; read-out: % Inhibition @ 100 nM
[26] = molecular target: 468 kinases (Homo sapiens, UniProt O14976); experiment: biochemical; assay type: binding; details: GAK; read-out: % Inhibition @ 100 nM
[27] = molecular target: KDR (Homo sapiens (Human), UniProt P35968); experiment: LanthaScreen Eu TR-FRET KDR competitive binding assay; details: read-out: IC50 (nM) KDR; mean±S.D. (n=3); competitive binding

SMILES: CCN(CC)CCNC(=O)c1c(C)[nH]c(/C=C2\C(=O)Nc3ccc(CCO)cc32)c1C [Compound No. 10, (Z)—N-(2-(Diethylamino)ethyl)-5-((5-(2-hydroxyethyl)-2-oxoindolin-3-ylidene)methyl)-2,4-dimethyl-1H-pyrrole-3-carboxamide]
- inhibition at 0.1 µM [1]: 0%
- inhibition at 0.1 µM [2]: 59%
- inhibition at 0.1 µM [3]: 58%
- inhibition at 0.1 µM [4]: 0%
- inhibition at 0.1 µM [5]: 0%
- inhibition at 0.1 µM [6]: 15%
- inhibition at 0.1 µM [7]: 65%
- inhibition at 0.1 µM [8]: 0%
- inhibition at 0.1 µM [9]: 8%
- inhibition at 0.1 µM [10]: 3%
- inhibition at 0.1 µM [11]: 0%
- inhibition at 0.1 µM ([12]; RSK4(Kin.Dom.1-N-terminal)): 0%
- inhibition at 0.1 µM ([12]; RSK4(Kin.Dom.2-C-terminal)): 4%
- inhibition at 0.1 µM [13]: 0%
- inhibition at 0.1 µM [14]: 99.3%
- inhibition at 0.1 µM [15]: 0%
- inhibition at 0.1 µM ([16]; RPS6KA5(Kin.Dom.1-N-terminal)): 11%
- inhibition at 0.1 µM ([16]; RPS6KA5(Kin.Dom.2-C-terminal)): 0%
- inhibition at 0.1 µM [17]: 0%
- inhibition at 0.1 µM [18]: 0%
- inhibition at 0.1 µM [19]: 0%
- inhibition at 0.1 µM [20]: 0%
- inhibition at 0.1 µM [21]: 11%
- inhibition at 0.1 µM [22]: 28%
- inhibition at 0.1 µM [23]: 0%
- inhibition at 0.1 µM [24]: 100%
- inhibition at 0.1 µM [25]: 0%
- inhibition at 0.1 µM [26]: 36%
- IC50 [27]: 848 ± 41 nM

SMILES: CCN(CC)CCNC(=O)c1c(C)[nH]c(/C=C2\C(=O)Nc3ccc(CCC(N)=O)cc32)c1C [Compound No. 16, (Z)-5-((5-(3-Amino-3-oxopropyl)-2-oxoindolin-3-ylidene)methyl)-N-(2-(diethylamino)ethyl)-2,4-dimethyl-1H-pyrrole-3-carboxamide]
- inhibition at 0.1 µM [1]: 35%
- inhibition at 0.1 µM [2]: 48%
- inhibition at 0.1 µM [3]: 56%
- inhibition at 0.1 µM [4]: 4%
- inhibition at 0.1 µM [5]: 1%
- inhibition at 0.1 µM [6]: 24%
- inhibition at 0.1 µM [7]: 68%
- inhibition at 0.1 µM [8]: 18%
- inhibition at 0.1 µM [9]: 0%
- inhibition at 0.1 µM [10]: 9%
- inhibition at 0.1 µM [11]: 57%
- inhibition at 0.1 µM ([12]; RSK4(Kin.Dom.1-N-terminal)): 70%
- inhibition at 0.1 µM ([12]; RSK4(Kin.Dom.2-C-terminal)): 22%
- inhibition at 0.1 µM [13]: 7%
- inhibition at 0.1 µM [14]: 61%
- inhibition at 0.1 µM [15]: 19%
- inhibition at 0.1 µM ([16]; RPS6KA5(Kin.Dom.1-N-terminal)): 0%
- inhibition at 0.1 µM ([16]; RPS6KA5(Kin.Dom.2-C-terminal)): 17%
- inhibition at 0.1 µM [17]: 0%
- inhibition at 0.1 µM [18]: 5%
- inhibition at 0.1 µM [19]: 71%
- inhibition at 0.1 µM [20]: 5%
- inhibition at 0.1 µM [21]: 1%
- inhibition at 0.1 µM [22]: 15%
- inhibition at 0.1 µM [23]: 10%
- inhibition at 0.1 µM [24]: 100%
- inhibition at 0.1 µM [25]: 3%
- inhibition at 0.1 µM [26]: 35%
- IC50 [27]: 3820 ± 530 nM
